Measured values reported in patent US11299472B2, “Fumarate salt of (R)-3-(1-(2,3-dichloro-4-(pyrazin-2-yl)phenyl)-2,2,2- trifluoroethyl)-1-methyl-1-(1-methylpiperidin-4-yl) urea, methods of preparation, and uses thereof” (Helsinn Healthcare SA, priority 2017, dated 2022).
Like-named read-outs stand apart in the source and are kept apart here.

Tests used:
[1] = Rat pharmacokinetic study, HM04 free base vs HM04 fumarate salt (Example 9); type: in vivo, male Sprague Dawley rats
[2] = Rat pharmacokinetic study, single oral HM04 fumarate salt 3, 10, 30 mg/kg (Example 10); type: in vivo, male Sprague Dawley rats; settings: for concentration at 0.5 h: 0.50 hours
Protocol: (§1) The pharmacokinetics of HM04 in plasma after single oral administration of HM04 fumarate salt to 6-week old male Sprague Dawley rats and male Beagle dogs (1-5 years of age) was investigated. Test formulations of 0.6 mg/mL, 2 mg/mL, and 6 mg/mL HM04 fumarate salt (based on weight of the free base) were prepared in 5% glucose solution. Doses of 3, 10, and 30 mg/kg HM04 fumarate salt (based on weight of the free base) were administered by gastric gavage as a 5 mL/kg dose volume of each of the three test formulations. Four animals were in each dose group. The formulation was administered to the dogs in fasting conditions with food provided three hours post-dosing.
A comparison of the plasma concentration of HM04 (ng/mL) in rats over time is provided in FIG. 19 and a summary of the pharmacokinetic analysis is provided in Table 5, below. […] The standard deviation associated with the mean oral bioavailability was calculated according to the formula: SDq=[^2√{square root over ((my^2·SDx^2+mx^2−SDy^2))}]/my^2 where q=mean bioavailability; mx=oral dose-normalized mean AUC, and my=IV dose-normalized mean AUC.
(§2) Plasma HM04 concentrations were measured by LC-MS/MS following protein precipitation in the 96-well plate format. At the time of analysis samples were thawed out at ambient temperature. Aliquots of 25 μL of rat or dog K3EDTA plasma were spiked with 300 μL of internal standard (25 ng/mL of HM04-d8 in acetonitrile). After gentle vortex mixing for 5 minutes and centrifugation at 2010 g for 15 minutes at 4° C., an aliquot of 100 μL of the organic phase was transferred into a fresh 96-well polypropylene plate, using a P3-Evolution robotic system (Perkin Elmer). Following dilution with 100 μL of […] ammonium formate pH 3.5, an aliquot of 10 μL was injected into the LC-MS/MS system.

[3] = Dog pharmacokinetic study, single oral HM04 fumarate salt 3, 10, 30 mg/kg (Example 10); type: in vivo, male Beagle dogs; settings: for bioavailability / concentration at 0 h / concentration at 0.25 h / concentration at 0.5 h / concentration at 1 h / concentration at 2 h / concentration at 4 h / concentration at 8 h / concentration at 24 h / AUC(0-t) / Cmax / Tmax / half-life / AUC(0-inf): male, Beagle, plasma; for bioavailability: individual AUC∞ ratios; for concentration at 0.5 h: 0.50 hours
Protocol: as §1
Oral absolute bioavailability at 3 mg/kg was calculated from the ratio of individual oral AUC∞ to the individual AUC∞ values determined following intravenous administration of 3 mg/kg HM04 fumarate salt (based on weight of the free base) to the same four male Beagle dogs.
Oral absolute bioavailability at 10 mg/kg was calculated from the ratio of individual oral AUC∞ to the individual AUC∞ values determined following intravenous administration of 10 mg/kg HM04 fumarate salt (based on weight of the free base) to the same four male Beagle dogs.
as §2

[4] = male, Sprague Dawley, plasma, 3 mg/kg oral vs 3 mg/kg intravenous mean AUC
[5] = male, Sprague Dawley, plasma, 3 mg/kg oral, n=4
[6] = male, Sprague Dawley, plasma, 10 mg/kg oral, n=4
[7] = male, Sprague Dawley, plasma, 10 mg/kg oral, N = 3
[8] = male, Sprague Dawley, plasma, 30 mg/kg oral, n=4
[9] = oral dose range of 3 to 30 mg/kg

Q: What does the source list for CN1CCC(N(C)C(=O)N[C@H](c2ccc(-c3cnccn3)c(Cl)c2Cl)C(F)(F)F)CC1.O=C(O)/C=C/C(=O)O [HM04 fumarate salt, (R)-3-(1-(2,3-dichloro-4-(pyrazin-2-yl)phenyl)-2,2,2-trifluoroethyl)-1-methyl-1-(1-methylpiperidin-4-yl)urea fumarate salt]?
A: HM04 plasma concentration ([1]; 3 mg/kg oral, 0.25 hours, mean ± S.D., n=3): 107.8 ± 27.8 ng/mL; HM04 plasma concentration ([1]; 3 mg/kg oral, 4 hours, mean ± S.D., n=3): 108.3 ± 38.3 ng/mL; AUC ([1]; male, Sprague Dawley, plasma, 3 mg/kg intravenous, three rats, read-out: mean AUC following intravenous administration): 2100 ± 358 ng·h/mL; bioavailability [1, 4]: 46.1 ± 6.99%; Cmax ([1]; male, Sprague Dawley, plasma, 3 mg/kg oral, mean ± S.D., n=3): 329 ± 185 ng/mL; HM04 plasma concentration ([2]; 3 mg/kg oral, 24 hours, n=4, LLOQ 5.0 ng/mL): BLQ; bioavailability [2, 4]: 43.3 ± 10.5%; concentration at 0.25 h [2, 5]: 34.7 ± 5.42 ng/mL; concentration at 0.5 h [2, 5]: 64.2 ± 35 ng/mL; concentration at 1 h [2, 5]: 82.4 ± 30.8 ng/mL; concentration at 2 h [2, 5]: 150 ± 53.5 ng/mL; concentration at 4 h [2, 5]: 116 ± 24 ng/mL; concentration at 8 h [2, 5]: 47 ± 10.9 ng/mL; half-life ([2]; male, Sprague Dawley, plasma, 3 mg/kg oral, N = 2): 2.82 h; AUC(0-t) [2, 5]: 762 ± 164 ng·h/mL; Cmax [2, 5]: 156 ± 47.3 ng/mL; Tmax [2, 5]: 3 ± 1.15 h; AUC ([2]; male, Sprague Dawley, plasma, 10 mg/kg intravenous, four rats, read-out: mean AUC following intravenous administration): 6170 ± 1770 ng·h/mL; bioavailability ([2]; male, Sprague Dawley, plasma, 10 mg/kg oral vs 10 mg/kg intravenous mean AUC): 54.4 ± 15.2%; concentration at 0.25 h [2, 6]: 150 ± 28.5 ng/mL; concentration at 0.5 h [2, 6]: 548 ± 603 ng/mL; concentration at 1 h [2, 6]: 456 ± 100 ng/mL; concentration at 2 h [2, 6]: 652 ± 62.1 ng/mL; concentration at 4 h [2, 6]: 387 ± 134 ng/mL; concentration at 8 h [2, 6]: 215 ± 97.3 ng/mL; concentration at 24 h ([2]; male, Sprague Dawley, plasma, 10 mg/kg oral, 24 hours, N = 1, three of four animals below level of quantification): 8.73 ± 17.5 ng/mL; AUC(0-t) [2, 7]: 3360 ± 685 ng·h/mL; half-life [2, 7]: 4.88 h; Cmax [2, 6]: 769 ± 458 ng/mL; Tmax [2, 6]: 1.38 ± 0.75 h; concentration at 0.25 h [2, 8]: 950 ± 465 ng/mL; concentration at 0.5 h [2, 8]: 1400 ± 961 ng/mL; concentration at 1 h [2, 8]: 2290 ± 537 ng/mL; concentration at 2 h [2, 8]: 2560 ± 530 ng/mL; concentration at 4 h [2, 8]: 2120 ± 422 ng/mL; concentration at 8 h [2, 8]: 1350 ± 179 ng/mL; concentration at 24 h ([2]; male, Sprague Dawley, plasma, 30 mg/kg oral, 24 hours, n=4): 14.6 ± 6.8 ng/mL; AUC(0-t) [2, 8]: 26200 ± 3970 ng·h/mL; Cmax [2, 8]: 2590 ± 524 ng/mL; Tmax [2, 8]: 1.75 ± 0.5 h; half-life [2, 8]: 2.65 ± 0.193 h; clearance [3]: low clearance; oral bioavailability [3]: high; HM04 plasma concentration ([3]; 30 mg/kg oral, 0 hours (pre-dose), n=4, LLOQ 2.5 ng/mL): BLQ; bioavailability ([3]; 3 mg/kg oral vs 3 mg/kg intravenous): 55.6 ± 18.8%; concentration at 0 h ([3]; 3 mg/kg oral, 0 hours (pre-dose), n=4): 5.34 ± 3.83 ng/mL; concentration at 0.25 h ([3]; 3 mg/kg oral, n=4): 66 ± 26.8 ng/mL; concentration at 0.5 h ([3]; 3 mg/kg oral, n=4): 360 ± 238 ng/mL; concentration at 1 h ([3]; 3 mg/kg oral, n=4): 300 ± 127 ng/mL; concentration at 2 h ([3]; 3 mg/kg oral, N = 3 (Dog 3 excluded as outlier)): 287 ± 158 ng/mL; concentration at 4 h ([3]; 3 mg/kg oral, n=4): 185 ± 115 ng/mL; concentration at 8 h ([3]; 3 mg/kg oral, n=4): 95.6 ± 83.3 ng/mL; concentration at 24 h ([3]; 3 mg/kg oral, n=4): 8.83 ± 14.7 ng/mL; AUC(0-t) ([3]; 3 mg/kg oral, n=4): 2160 ± 1720 ng·h/mL; Cmax ([3]; 3 mg/kg oral, n=4): 425 ± 222 ng/mL; Tmax ([3]; 3 mg/kg oral, n=4): 0.875 ± 0.25 h; half-life ([3]; 3 mg/kg oral, n=4, read-out: t1/2 (converted)): 4.02 ± 1.21 h; bioavailability ([3]; 10 mg/kg oral vs 10 mg/kg intravenous): 68 ± 10%; concentration at 0 h ([3]; 10 mg/kg oral, 0 hours (pre-dose), n=4): 2.15 ± 4.3 ng/mL; concentration at 0.25 h ([3]; 10 mg/kg oral, n=4): 307 ± 246 ng/mL; concentration at 0.5 h ([3]; 10 mg/kg oral, n=4): 862 ± 460 ng/mL; concentration at 1 h ([3]; 10 mg/kg oral, n=4): 1510 ± 435 ng/mL; concentration at 2 h ([3]; 10 mg/kg oral, n=4): 1170 ± 260 ng/mL; concentration at 4 h ([3]; 10 mg/kg oral, n=4): 789 ± 150 ng/mL; concentration at 8 h ([3]; 10 mg/kg oral, n=4): 468 ± 171 ng/mL; concentration at 24 h ([3]; 10 mg/kg oral, n=4): 65.1 ± 65.2 ng/mL; AUC(0-t) ([3]; 10 mg/kg oral, n=4): 10900 ± 3500 ng·h/mL; Cmax ([3]; 10 mg/kg oral, n=4): 1510 ± 435 ng/mL; Tmax ([3]; 10 mg/kg oral, n=4): 1 h; half-life ([3]; 10 mg/kg oral, n=4, read-out: t1/2 (converted)): 4.93 ± 1.31 h; concentration at 0.25 h ([3]; 30 mg/kg oral, n=4): 1940 ± 1330 ng/mL; concentration at 0.5 h ([3]; 30 mg/kg oral, n=4): 3730 ± 1560 ng/mL; concentration at 1 h ([3]; 30 mg/kg oral, n=4): 5720 ± 1200 ng/mL; concentration at 2 h ([3]; 30 mg/kg oral, n=4): 5030 ± 710 ng/mL; concentration at 4 h ([3]; 30 mg/kg oral, n=4): 3780 ± 577 ng/mL; concentration at 8 h ([3]; 30 mg/kg oral, n=4): 2440 ± 176 ng/mL; concentration at 24 h ([3]; 30 mg/kg oral, n=4): 560 ± 147 ng/mL; AUC(0-t) ([3]; 30 mg/kg oral, n=4): 54000 ± 6010 ng·h/mL; Cmax ([3]; 30 mg/kg oral, n=4): 5720 ± 1200 ng/mL; Tmax ([3]; 30 mg/kg oral, n=4): 1 h; half-life ([3]; 30 mg/kg oral, n=4, read-out: t1/2 (converted)): 6.97 ± 0.613 h; half-life ([3]; intravenous, range, read-out: half-life after intravenous administration): 4 to 5 h; AUC(0-inf) ([3]; iv, 3 mg/kg, Dog 1, 3 mg/kg intravenous, read-out: individual IV AUC∞): 6190 ng·h/mL; AUC(0-inf) ([3]; iv, 3 mg/kg, Dog 2, 3 mg/kg intravenous, read-out: individual IV AUC∞): 3100 ng·h/mL; AUC(0-inf) ([3]; iv, 3 mg/kg, Dog 3, 3 mg/kg intravenous, read-out: individual IV AUC∞): 3210 ng·h/mL; AUC(0-inf) ([3]; iv, 3 mg/kg, Dog 4, 3 mg/kg intravenous, read-out: individual IV AUC∞): 3070 ng·h/mL; AUC(0-inf) ([3]; iv, 10 mg/kg, Dog 1, 10 mg/kg intravenous, read-out: individual IV AUC∞): 22500 ng·h/mL; AUC(0-inf) ([3]; iv, 10 mg/kg, Dog 2, 10 mg/kg intravenous, read-out: individual IV AUC∞): 13200 ng·h/mL; AUC(0-inf) ([3]; iv, 10 mg/kg, Dog 3, 10 mg/kg intravenous, read-out: individual IV AUC∞): 15500 ng·h/mL; AUC(0-inf) ([3]; iv, 10 mg/kg, Dog 4, 10 mg/kg intravenous, read-out: individual IV AUC∞): 14900 ng·h/mL; half-life ([3]; oral 3 to 30 mg/kg, range, read-out: apparent terminal half-life): 4 to 7 h; AUC(0-inf) ([3]; po, 3 mg/kg, Dog 1, 3 mg/kg oral, read-out: individual oral AUC∞): 4930 ng·h/mL; AUC(0-inf) ([3]; po, 3 mg/kg, Dog 2, 3 mg/kg oral, read-out: individual oral AUC∞): 1440 ng·h/mL; AUC(0-inf) ([3]; po, 3 mg/kg, Dog 3, 3 mg/kg oral, read-out: individual oral AUC∞): 1160 ng·h/mL; AUC(0-inf) ([3]; po, 3 mg/kg, Dog 4, 3 mg/kg oral, read-out: individual oral AUC∞): 1850 ng·h/mL; AUC(0-inf) ([3]; po, 10 mg/kg, Dog 1, 10 mg/kg oral, read-out: individual oral AUC∞): 17500 ng·h/mL; AUC(0-inf) ([3]; po, 10 mg/kg, Dog 2, 10 mg/kg oral, read-out: individual oral AUC∞): 8780 ng·h/mL; AUC(0-inf) ([3]; po, 10 mg/kg, Dog 3, 10 mg/kg oral, read-out: individual oral AUC∞): 8470 ng·h/mL; AUC(0-inf) ([3]; po, 10 mg/kg, Dog 4, 10 mg/kg oral, read-out: individual oral AUC∞): 10900 ng·h/mL; AUC versus dose [3, 9]: increased more than in direct proportion with the dose; Cmax versus dose [3, 9]: increased roughly proportionally with the dose; time to maximal concentrations of HM04 ([3]; single oral administrations, post-dosing): ≤ 1 h
